# Results published in PMC9925730, “Controlled sequential in situ self-assembly and disassembly of a fluorogenic cisplatin prodrug for cancer theranostics” (Nature Communications, 2023).
# “Also recorded” adds a separate entry of the source.
# How the values were obtained:
# [1] = test system: orthotopic HepG2/Luc liver tumors; experiment: Chemotherapy of orthotopic liver tumors (BL imaging, ex vivo BL and FL imaging); assay type: in vivo, mice;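 further: bioluminescence quantified by ROI over liver region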
# [2] = Side toxicity in s.c. HeLa tumor-bearing mice (body weight, BUN, CRE, H&E); conditions: for body weight during treatment: 2.25 mg kg^−1 Pt i.v. x5, 21 days; for increase of blood urea nitrogen (BUN) level / increase of creatinine (CRE) level: day 21
# [3] = GSH-triggered reduction, disassembly of Pt^IVNPs and CDDP release in solution (HPLC, DLS, TEM, ICP-OES); set-up: amount of compound in the P-CyPt solution (HPLC, Fig. 2h) / mean size by TEM (Fig. 2i) / mean size by DLS (Fig. 2i): unit not given here; conditions: for amount of compound in the P-CyPt solution (HPLC, Fig. 2h) / Pt release (ICP-OES, Fig. 2h) / mean size by DLS (Fig. 2i) / mean size by TEM (Fig. 2i): P-CyPt 10 μM
# Method: To evaluate the ALP-triggered dephosphorylation and in situ self-assembly process, a solution of P-CyPt (10 μM) in Tris buffer (1 mL) was incubated with ALP (100 U/L) at 37 °C. HPLC, DLS, and TEM analyses were performed at 0, 5, 10, 15, 20, and 30 min. To evaluate the GSH-triggered reduction and disassembly process, P-CyPt (10 μM) in Tris buffer (1 mL) was first incubated with ALP (100 U/L) at 37 °C for 30 min to allow the formation of Pt^IVNPs. The solution was then treated with 10 mM GSH at 37 °C, which was monitored by HPLC, DLS, and TEM at 10, 20, 30, 40, 50, and 60 min.
# (a) 5 mM GSH 10 mM GSH(b ) (c)
# 60 min 60 min CyPt Cy- CO O H
# Time (min) Time (min) Time (min)
# Supplementary Figure 9. HPLC traces of the time-dependent conversion of PtIVNPs (CyPt) into Cy-COOH under incubation with 5 mM (a) or 10 mM GSH (b) in Tris buffer. (c) The conversion curves of PtIVNPs (CyPt) into Cy-COOH under incubation with 5 mM (red) or 10 mM GSH (black) in Tris buffer. P-CyPt (10 μM) was incubated with ALP (100 U/L, 37 °C) in Tris buffer for 30 min to allow complete dephosphorylation and in situ self-assembly into PtIVNPs. Then, GSH at a concentration of 5 mM or 10 mM was added and incubated for another 0, 10, 20, 30, 40, 50, and 60 min. The amounts of CyPt and Cy-COOH at each time point were quantified by HPLC.
# Date are mean ± s.d. (n = 3 independent experiments). […]
# Release of CDDP from PtIVNPs during disassembly process. P-CyPt (10 μM) in 5 mL Tris buffer was incubated with ALP (100 U/L) at 37 °C for 30 min to form PtIVNPs, followed by addition with 10 mM GSH at 37 °C. After 10, 20, 30, 40, 50 and 60 min, 50 mM N-ethylmaleimide was added into the solution to scavenge GSH. The reaction solution was centrifuged at 13,000 × g and the supernatant was collected. The supernatants were digested with concentrated HNO3 (65~70%) and HCl (36~38%) at 90 °C for 24 h. The solution was diluted to 5 mL 2% HNO3 and 5% HCl solution, and the concentration of Pt element was measured by ICP-OES, which was further applied to calculate the amount of CDDP (denoted as NPt) released in the solution. The percentage of Pt release at each time point was calculated according to the formula:
# Pt release % = NPt/N0 × 100% (9)
# Where N0 represents the total amount of Pt in the in situ formed PtIVNPs, and NPt represents the amount of Pt released from PtIVNPs following incubation with GSH.
# Characterization of enzyme kinetics of P-CyPt towards ALP. Briefly, varying concentrations of P-CyPt (0.5, 1.0, 2.0, 3.0, 4.0, and 5.0 μM) in 100 μL Tris buffer were placed in a 96-well black plate. The reactions were initiated upon addition of 100 μL ALP (30 U/L) to each solution. The resulting fluorescence intensities in each well in the first five minutes were recorded on a Spark™ 10M Multimode Microplate Reader (λex/em = 680/710 nm). The amount of CyPt at each time point was determined by a standard curve under the same conditions. Kinetics values, including Km and Vmax, were determined according to the Lineweaver-Burk plot.
# Determination of the sensitivity of P-CyPt towards ALP. To evaluate the sensitivity of P-CyPt towards ALP, P-CyPt (10 μM) was incubated with varying concentrations of […]
# 30 min, and the fluorescence spectra were then recorded on a HORIBA Jobin Yvon Fluoromax-4 fluorometer, with an excitation at 680 nm. The resulting fluorescence intensities at 710 nm were plotted to the con centrations of ALP, and a linear regression fitted from 0 -20 U/L ALP was obtained, affording the slope k. The detection limit was calculated from 3σ/k, where σ represents the standard deviation of 11 blank […]
# Determination of the specificity towards ALP. The specificity towards ALP in vitro was evaluated based on fluorescence, respectively. P-CyPt (10 μM) in Tris buffer was incubated with 10 nmol/L of MMP-2, 100 U/L of γ-glutamyl transferase (GGT), 100 U/L Cathepsin B (CTB), 0.2 μg/mL of Caspase-3/7, 2.5 mg/mL of Trypsin, 100 U/L of ALP or 100 U/L ALP pretreated with its inhibitors, Na 3VO4 (100 μM) for 10 min. The […]
# [4] = 2.25 mg kg^−1 Pt i.v. day 0, 3, 6, 9, 12, day 3
# [5] = ALP 30 min then GSH 10 mM 10 min (time 40)
# [6] = ALP 30 min then GSH 10 mM 20 min (time 50)
# [7] = ALP 30 min then GSH 10 mM 30 min (time 60)
# [8] = ALP 30 min then GSH 10 mM 40 min (time 70)
# [9] = ALP 30 min then GSH 10 mM 50 min (time 80)
# [10] = ALP 30 min then GSH 10 mM 60 min (time 90)
compound,measurement,setting,value
"[NH2][Pt]([NH2])([Cl])[Cl] [CDDP, cisplatin]",tumor BL intensity of liver,[1]; [4],88767.5
same,tumor BL intensity of liver,[1]; day 6,201697.5
same,tumor BL intensity of liver,[1]; day 9,375850.0
same,tumor BL intensity of liver,[1]; day 12,589375.0
same,body weight during treatment,[2],obviously decreased
same,increase of blood urea nitrogen (BUN) level,[2],~ 1.6 fold
same,increase of creatinine (CRE) level,[2],~ 1.4 fold
CC1(C)C(/C=C/C2=C3Oc4cc(O)c(Cl)cc4C=C3CCC2)=[N+](CCCNC(=O)[C@@H](Cc2ccccc2)NC(=O)[C@@H](Cc2ccccc2)NC(=O)CCC(=O)[O][Pt]([NH2])([NH2])([OH])([Cl])[Cl])c2ccccc21 [CyPt],reduction of CyPt in Pt^IVNPs into Cy-COOH (HPLC),"[3]; 5 or 10 mM GSH, after 60 min",completely reduced into Cy-COOH
same,"amount of compound in the P-CyPt solution (HPLC, Fig. 2h)",[3]; [5],82.67
same,"amount of compound in the P-CyPt solution (HPLC, Fig. 2h)",[3]; [6],59.68
same,"amount of compound in the P-CyPt solution (HPLC, Fig. 2h)",[3]; [7],38.50
same,"amount of compound in the P-CyPt solution (HPLC, Fig. 2h)",[3]; [8],22.16
same,"amount of compound in the P-CyPt solution (HPLC, Fig. 2h)",[3]; [9],9.16
same,"amount of compound in the P-CyPt solution (HPLC, Fig. 2h)",[3]; [10],0.00
CC1(C)C(/C=C/C2=C3Oc4cc(OP(=O)(O)O)c(Cl)cc4C=C3CCC2)=[N+](CCCNC(=O)[C@@H](Cc2ccccc2)NC(=O)[C@@H](Cc2ccccc2)NC(=O)CCC(=O)[O][Pt]([NH2])([NH2])([OH])([Cl])[Cl])c2ccccc21 [P-CyPt],tumor BL intensity of liver,[1]; [4],2725.3
same,tumor BL intensity of liver,[1]; day 6,3155.3
same,tumor BL intensity of liver,[1]; day 9,3616.5
same,tumor BL intensity of liver,[1]; day 12,6594.0
same,"Pt release (ICP-OES, Fig. 2h)",[3]; [5],19.98%
same,"amount of compound in the P-CyPt solution (HPLC, Fig. 2h)",[3]; [5],0
same,mean size by DLS (Fig. 2i),[3]; [5],133.97
same,mean size by TEM (Fig. 2i),[3]; [5],128.24
same,"Pt release (ICP-OES, Fig. 2h)",[3]; [6],42.65%
same,"amount of compound in the P-CyPt solution (HPLC, Fig. 2h)",[3]; [6],0
same,mean size by DLS (Fig. 2i),[3]; [6],96.71
same,mean size by TEM (Fig. 2i),[3]; [6],91.24
same,"Pt release (ICP-OES, Fig. 2h)",[3]; [7],64.34%
same,"amount of compound in the P-CyPt solution (HPLC, Fig. 2h)",[3]; [7],0
same,mean size by DLS (Fig. 2i),[3]; [7],62.38
same,mean size by TEM (Fig. 2i),[3]; [7],68.92
same,"Pt release (ICP-OES, Fig. 2h)",[3]; [8],80.43%
same,"amount of compound in the P-CyPt solution (HPLC, Fig. 2h)",[3]; [8],0
same,mean size by DLS (Fig. 2i),[3]; [8],35.90
same,mean size by TEM (Fig. 2i),[3]; [8],38.87
same,"Pt release (ICP-OES, Fig. 2h)",[3]; [9],95.70%
same,"amount of compound in the P-CyPt solution (HPLC, Fig. 2h)",[3]; [9],0
same,mean size by DLS (Fig. 2i),[3]; [9],14.84
same,mean size by TEM (Fig. 2i),[3]; [9],11.31
same,"Pt release (ICP-OES, Fig. 2h)",[3]; [10],99.63%
same,"amount of compound in the P-CyPt solution (HPLC, Fig. 2h)",[3]; [10],0
same,mean size by DLS (Fig. 2i),[3]; [10],0.00
same,mean size by TEM (Fig. 2i),[3]; [10],0.00
same,body weight during treatment,[2],similar
same,increase of blood urea nitrogen (BUN) level,[2],not obviously upregulated
same,increase of creatinine (CRE) level,[2],not obviously upregulated
same,H&E staining of major organs (side toxicity),[2]; day 21 after 5 doses of 2.25 mg kg^−1 Pt,all organs looked normal; also recorded: no apparent cell death
